In PubChem BioAssay AID651914 (NMMLSC, 2012):

System: AM2.2-GPR32 FAP cells, fluorogen binding, flow cytometry MCF
Test: fluorogen binding to FAP-tagged GPR32, dose response, counter-screen for beta2AR agonist internalization project, AM2.2 cells, flow cytometry, powder set 5 (AID 651914)

| SMILES | EC50 [nM] |
| --- | --- |
| CCC(=O)Nc1ccc(S(=O)(=O)N2CCCCC2CC)cc1 (stereo not drawn) | 7.5 |
| Cc1cccc(C(=O)Nc2ccc(S(=O)(=O)N3CCCCC3C)cc2)c1 (stereo not drawn) | 2900 |
| CN(CC(=O)N1CCN(c2ccc(F)cc2)CC1)S(=O)(=O)c1ccc(Br)cc1 | 410 |
